Test results published in ChEMBL document CHEMBL3864193 (Bioorg Med Chem, 2016).

Assays:
[1] = cells; settings: Homo sapiens, PC-3, 72 h
Description: Cytotoxicity against human PC3 cells after 72 hrs by MTT assay

[2] = Cytotoxicity against human A549 cells after 72 hrs by MTT assay; type: functional, cell-based; settings: A549, 72 h
[3] = cells; settings: Homo sapiens, MCF7, 72 h
Description: Cytotoxicity against human MCF7 cells after 72 hrs by MTT assay

[4] = molecular target: Vascular endothelial growth factor receptor 2 (Homo sapiens, UniProt P35968); assay: Inhibition of VEGFR2 (unknown origin) by mobility shift/LanthaScreen assay
Sequence of Vascular endothelial growth factor receptor 2 (P35968 whole entry): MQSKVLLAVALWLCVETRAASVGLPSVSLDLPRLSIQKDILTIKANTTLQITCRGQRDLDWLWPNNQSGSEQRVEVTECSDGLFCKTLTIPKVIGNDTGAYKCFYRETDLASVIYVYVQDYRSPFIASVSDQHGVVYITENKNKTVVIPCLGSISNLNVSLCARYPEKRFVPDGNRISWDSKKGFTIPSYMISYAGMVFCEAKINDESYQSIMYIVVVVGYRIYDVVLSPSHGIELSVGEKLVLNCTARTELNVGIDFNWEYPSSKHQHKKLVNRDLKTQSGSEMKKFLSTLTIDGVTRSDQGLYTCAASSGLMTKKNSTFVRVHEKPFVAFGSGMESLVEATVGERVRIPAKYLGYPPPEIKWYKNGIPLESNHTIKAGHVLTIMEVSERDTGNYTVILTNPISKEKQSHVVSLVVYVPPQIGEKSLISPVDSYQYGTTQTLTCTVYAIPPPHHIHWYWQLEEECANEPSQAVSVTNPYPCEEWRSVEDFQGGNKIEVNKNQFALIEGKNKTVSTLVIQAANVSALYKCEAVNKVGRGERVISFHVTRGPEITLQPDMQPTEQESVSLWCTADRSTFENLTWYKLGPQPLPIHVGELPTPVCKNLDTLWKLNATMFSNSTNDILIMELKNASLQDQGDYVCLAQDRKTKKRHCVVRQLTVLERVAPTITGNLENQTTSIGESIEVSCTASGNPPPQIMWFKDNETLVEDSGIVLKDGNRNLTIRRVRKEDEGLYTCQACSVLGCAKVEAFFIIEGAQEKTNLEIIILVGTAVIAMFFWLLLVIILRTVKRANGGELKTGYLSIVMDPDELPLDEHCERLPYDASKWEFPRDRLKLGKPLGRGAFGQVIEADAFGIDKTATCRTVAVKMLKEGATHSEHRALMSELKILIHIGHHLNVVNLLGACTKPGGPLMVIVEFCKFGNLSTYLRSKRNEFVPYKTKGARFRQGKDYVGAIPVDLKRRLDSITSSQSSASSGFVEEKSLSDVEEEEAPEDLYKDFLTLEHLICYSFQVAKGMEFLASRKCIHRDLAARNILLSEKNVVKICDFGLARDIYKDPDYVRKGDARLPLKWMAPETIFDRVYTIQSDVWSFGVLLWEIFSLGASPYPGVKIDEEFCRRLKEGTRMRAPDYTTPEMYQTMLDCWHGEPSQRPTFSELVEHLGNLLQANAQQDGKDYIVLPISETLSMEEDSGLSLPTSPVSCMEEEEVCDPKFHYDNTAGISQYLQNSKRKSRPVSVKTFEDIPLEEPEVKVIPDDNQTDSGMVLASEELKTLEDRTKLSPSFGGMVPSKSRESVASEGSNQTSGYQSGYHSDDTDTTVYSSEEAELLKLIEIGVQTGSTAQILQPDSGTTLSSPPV

SMILES	IC50 [1]	IC50 [2]	IC50 [3]	IC50 [4]
CNC(=O)c1cc(Oc2ccc(NC(=O)c3cc(-c4ccc(F)cc4)ncn3)cc2F)ccn1	> 100 µM	> 100 µM	> 100 µM	
CNC(=O)c1cc(Oc2ccc(NC(=O)c3nccc(-c4cccc(Cl)c4)n3)cc2)ccn1	20.8 µM	> 100 µM	> 100 µM	
CNC(=O)c1cc(Oc2ccc(NC(=O)c3cc(-c4ccc(C(F)(F)F)cc4)ncn3)cc2F)ccn1	> 100 µM	> 100 µM	> 100 µM	
CNC(=O)c1cc(Oc2ccc(NC(=O)c3nccc(-c4ccc(C)cc4)n3)cc2F)ccn1	28.4 µM	33.2 µM	69.2 µM	
CNC(=O)c1cc(Oc2ccc(NC(=O)c3nccc(-c4ccc([N+](=O)[O-])cc4)n3)cc2)ccn1	> 100 µM	> 100 µM	> 100 µM	
CNC(=O)c1cc(Oc2ccc(NC(=O)c3nccc(-c4ccc(OC)cc4)n3)cc2F)ccn1	24.3 µM	16.6 µM	> 100 µM	
CNC(=O)c1cc(Oc2ccc(NC(=O)c3cc(-c4ccc(Cl)cc4)ncn3)cc2F)ccn1	> 100 µM	> 100 µM	> 100 µM	
CNC(=O)c1cc(Oc2ccc(NC(=O)c3cc(-c4ccc(C)cc4)ncn3)cc2)ccn1	> 100 µM	> 100 µM	34.6 µM	
CCc1ccc(-c2cc(C(=O)Nc3ccc(Oc4ccnc(C(=O)NC)c4)c(F)c3)ncn2)cc1	15.6 µM	3.39 µM	7.63 µM	1.2 µM
CNC(=O)c1cc(Oc2ccc(NC(=O)c3nccc(-c4ccc(C)cc4)n3)cc2)ccn1	13.1 µM	28.4 µM	44.2 µM	
CNC(=O)c1cc(Oc2ccc(NC(=O)c3cc(-c4ccc(F)cc4)ncn3)cc2)ccn1	> 100 µM	> 100 µM	> 100 µM	
CNC(=O)c1cc(Oc2ccc(NC(=O)c3cc(-c4ccc(Cl)cc4)ncn3)cc2)ccn1	> 100 µM	> 100 µM	> 100 µM	
CNC(=O)c1cc(Oc2ccc(NC(=O)c3nccc(-c4ccc(OC)cc4)n3)cc2)ccn1	14.2 µM	11.1 µM	35.2 µM	
CNC(=O)c1cc(Oc2ccc(NC(=O)c3cc(-c4ccc(OC)cc4)ncn3)cc2)ccn1	38.8 µM	13.5 µM	29.2 µM	
CNC(=O)c1cc(Oc2ccc(NC(=O)c3nccc(-c4ccccc4)n3)cc2)ccn1	7.31 µM	26.2 µM	39.1 µM	
CNC(=O)c1cc(Oc2ccc(NC(=O)c3cc(-c4ccc(C(F)(F)F)cc4)ncn3)cc2)ccn1	> 100 µM	> 100 µM	> 100 µM	
CNC(=O)c1cc(Oc2ccc(NC(=O)c3cc(-c4ccc(Br)cc4)ncn3)cc2F)ccn1	> 100 µM	> 100 µM	> 100 µM	
CNC(=O)c1cc(Oc2ccc(NC(=O)c3cc(-c4ccccc4)ncn3)cc2F)ccn1	44.3 µM	23.2 µM	32.4 µM	
CNC(=O)c1cc(Oc2ccc(NC(=O)c3cc(-c4ccccc4)ncn3)cc2)ccn1	44.2 µM	27.1 µM	18.2 µM	
CNC(=O)c1cc(Oc2ccc(NC(=O)c3cc(-c4ccc(OC)cc4)ncn3)cc2F)ccn1	56.2 µM	34.5 µM	46.2 µM	
CNC(=O)c1cc(Oc2ccc(NC(=O)c3cc(-c4ccc(C)cc4)ncn3)cc2F)ccn1	40.2 µM	13.2 µM	19.2 µM	
CCc1ccc(-c2cc(C(=O)Nc3ccc(Oc4ccnc(C(=O)NC)c4)cc3)ncn2)cc1	29.3 µM	13.3 µM	6.35 µM	3.6 µM
CNC(=O)c1cc(Oc2ccc(NC(=O)c3cc(-c4ccc(Br)cc4)ncn3)cc2)ccn1	> 100 µM	> 100 µM	> 100 µM	
